# In US20170027854A1, “Methods And Compositions For Improving The Appearance Of Skin” (ELC Management LLC, priority 2015, published 2017):
# Ends that are not written are not given here.
# Test system: SIRT6
# Assay: SIRT6 expression in normal human epidermal keratinocytes by immunohistochemistry
# Assay type: cell-based
# Settings: 1% and 3% of a 50 ppm peptide solution, FIG. 2
# Protocol: SIRT6 is a member of the conserved family of sirtuin proteins which are associated with metabolism and longevity. SIRT6 is a histone 3, lysine 9 (H3K9) deacetylase and is primarily involved in DNA repair and telomere stability. The peptide of (SEQ ID No. 5) Gly-Ala-Gly-Val-Ser-Ala-Glu-NH2 was tested for Sirt6 stimulating activity as follows.
# Normal Human Epidermal Keratinocytes p3
# • 1. Cells were plated into 4 well chamber slides @ 10,000 cells/chamber and incubated at 37° C., 5% CO2 & 95% humidity for 24 hours. • 2. The peptide of SEQ ID No. 5 was prepared as follows: • 2.1. Dissolved 5 mg peptide in 5 ml medium to make a 1000 ppm stock solution. • 2.2. Diluted the stock solution to 50 ppm by combining 400 μl 1000 ppm stock solution with 7.6 ml medium • 2.3. Prepared a 3% of the 50 ppm solution by combining 1.5 ml 50 ppm stock with 48.5 ml medium • 2.4. Prepared a 1% of the 50 ppm solution by combining 0.5 ml 50 ppm stock with […] medium • 3. Placed treatments (500 μl per chamber) on cells for 48 h, refreshing treatments after 24 h • 4. Aspirated media and replaced with the appropriate treatments. Incubated for 1 & 6 hours. • 5. Performed immunohistochemistry on the cells
# • 6. Prepared Wash Buffer (0.2% Triton X-100):
# 6.1. Add 1 mL of Triton X-100 to 499 ml of 1×PBS • 7. Prepared Block Solution (1%/10 mg/ml BSA)
# 7.1. Added 5 g of BSA into a final volume of 500 ml of 1×PBS • 8. […]
substance,measurement,value
Gly-Ala-Gly-Val-Ser-Ala-Glu-NH2 (GAGVSAE-NH2) [SEQ ID No. 5],SIRT6 expression,dose dependent increase in SIRT6 expression
